Test results: patent US20200157092A1, “[1,2,4]-TRIAZOLO [1,5-A]-PYRIMIDINYL DERIVATIVES SUBSTITUTED WITH PIPERIDINE, […] […] OGA INHIBITORS” (priority 2017, published 2020)
pEC50: −log10 of the molar value. Where two headings read alike, the source gives them in different places.

Columns and labels:
[1] = target: T1, recombinant human Meningioma Expressed Antigen 5 (MGEA5), also referred to as O-GlcNAcase (OGA) (Homo sapiens, UniProt O60502); test: OGA biochemical assay: inhibition of FM-GlcNAc hydrolysis, fluorescence; protocol A (10 nM OGA, 1 h) or protocol B (2 nM OGA, 6 h); conditions: for IC50: read-out: Enzymatic hOGA, pIC50 (converted)
T1 construct: Full length OGA enzyme was purchased at OriGene (cat # TP322411); purchased OriGene TP322411
T1 sequence (O60502 1-916): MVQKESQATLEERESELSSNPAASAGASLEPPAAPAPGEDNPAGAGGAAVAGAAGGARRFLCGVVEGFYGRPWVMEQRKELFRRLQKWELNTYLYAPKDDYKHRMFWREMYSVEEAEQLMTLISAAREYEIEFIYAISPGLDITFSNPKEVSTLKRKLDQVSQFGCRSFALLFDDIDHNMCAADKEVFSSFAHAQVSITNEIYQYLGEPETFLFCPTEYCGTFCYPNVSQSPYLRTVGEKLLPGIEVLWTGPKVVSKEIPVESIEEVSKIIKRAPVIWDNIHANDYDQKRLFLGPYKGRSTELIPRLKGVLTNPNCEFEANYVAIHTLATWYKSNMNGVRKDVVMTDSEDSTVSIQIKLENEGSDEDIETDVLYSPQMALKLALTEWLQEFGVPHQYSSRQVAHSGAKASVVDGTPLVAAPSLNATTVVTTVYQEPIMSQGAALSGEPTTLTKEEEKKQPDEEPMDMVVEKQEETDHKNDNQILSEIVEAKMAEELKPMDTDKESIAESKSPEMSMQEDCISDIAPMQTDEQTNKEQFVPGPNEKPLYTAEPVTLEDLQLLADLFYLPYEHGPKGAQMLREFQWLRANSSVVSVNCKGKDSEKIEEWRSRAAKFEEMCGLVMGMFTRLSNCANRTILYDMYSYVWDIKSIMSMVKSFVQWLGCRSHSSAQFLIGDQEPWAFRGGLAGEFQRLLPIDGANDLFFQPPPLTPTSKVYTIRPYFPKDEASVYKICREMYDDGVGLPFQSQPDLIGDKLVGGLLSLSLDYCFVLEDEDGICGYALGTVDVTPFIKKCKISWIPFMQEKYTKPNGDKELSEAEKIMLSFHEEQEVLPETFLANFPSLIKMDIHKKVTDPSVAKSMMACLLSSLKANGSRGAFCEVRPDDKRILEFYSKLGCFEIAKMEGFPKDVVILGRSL
Protocol: The hydrolysis FM-GlcNAc (Marker Gene technologies, cat # M1485) results in the formation of ß-D-N-glucosamineacetate and fluorescein. The fluorescence of the latter can be measured at excitation wavelength 485 nm and emission wavelength 538 nm. An increase in enzyme activity results in an increase in fluorescence signal. Full length OGA enzyme was purchased at OriGene (cat # TP322411). The enzyme was stored in 25 mM Tris.HCl, pH 7.3, 100 mM glycine, 10% glycerol at −20° C. […] The assay was performed in 200 mM Citrate/phosphate buffer supplemented with 0.005% Tween-20. 35.6 g Na2HPO4 2 H2O (Sigma, # C0759) were dissolved in 1 L water to obtain a 200 mM solution. […] The buffer to stop the reaction consists of a 500 mM Carbonate buffer, pH 11.0. […] OGA was used at a 10 nM (protocol A) or 2 nM (protocol B) concentration and FM-GlcNAc at a 100 uM final concentration. Dilutions were prepared in assay buffer.
Plates were pre-incubated for 60 min at room temperature and then 2 μl FM-GlcNAc substrate mix added. […] Plates were briefly centrifuged for 1 min at 1000 rpm and incubate at room temperature for 1 h (10 nM OGA, protocol A) or 6 h (2 nM OGA, protocol B). To stop the reaction 5 μl STOP buffer were added and plates centrifuge again 1 min at 1000 rpm. Fluorescence was quantified in the Thermo Scientific Fluoroskan Ascent or the PerkinElmer EnVision with excitation wavelength 485 nm and emission wavelength 538 nm.
For analysis a best-fit curve is fitted by a minimum sum of squares method. From this an IC50 value and Hill coefficient was obtained. High control (no inhibitor) and low control (saturating concentrations of standard inhibitor) were used to define the minimum and maximum values.

OGA = target: T2, OGA (Homo sapiens, UniProt O60502); test: OGA cellular assay: immunocytochemical detection of O-GlcNAcylated proteins in HEK293 cells inducible for P301L mutant human Tau; type: cell-based; conditions: for Emax: HEK293, read-out: Cellular Emax (%); for Cellular hOGA; pEC50 / Cellular Emax (%): HEK293 cells inducible for P301L mutant human Tau, 6 hours incubation; for Cellular Emax (%): maximum = Thiamet G 200 uM
T2 construct: HEK293 cells inducible for P301L mutant human Tau (isoform 2N4R) were established at Janssen; endogenous in cells; host or cells: HEK293 cells inducible for P301L mutant human Tau (2N4R)
T2 sequence (O60502 1-916): T1 sequence (O60502 1-916)
Source text: HEK293 cells inducible for P301L mutant human Tau (isoform 2N4R) were established at Janssen. Thiamet-G was used for both plate validation (high control) and as reference compound (reference EC50 assay validation). […] Inhibition of OGA will result in an increase of O-GlcNAcylated protein levels resulting in an increased signal in the experiment. […] ICC pictures are imaged with a Perkin Elmer Opera Phenix plate microscope and quantified with the provided software Perkin Elmer Harmony 4.1.
Cells were propagated in DMEM high Glucose (Sigma, # D5796) following standard procedures. […] At the day of compound test medium from assay plates was removed and replenished with 90 μl of fresh Assay Medium. 10 μl of compounds at a 10 fold final concentration were added to the wells. Plates were centrifuged shortly before incubation in the cell incubator for 6 hours. DMSO concentration was set to 0.2%. Medium is discarded by applying vacuum. For staining of cells medium was removed and cells washed once with 100 μl D-PBS (Sigma, # D8537). From next step onwards unless other stated assay volume was always 50 μl and incubation was performed without agitation and at room temperature. […] Before analysis samples were washed 2 times manually for 5 minutes in ICC base buffer.
Imaging is performed using Perkin Elmer Phenix Opera using a water 20× objective and recording 9 fields per well. Intensity readout at 488 nm is used as a measure of O-GlcNAcylation level of total proteins in wells. To assess potential toxicity of compounds nuclei were counted using the Hoechst staining. IC50-values are calculated using parametric non-linear regression model fitting. As a maximum inhibition Thiamet G at a 200 uM concentration is present on each plate. In addition, a concentration response of Thiamet G is calculated on each plate.

[2] = Enzymatic protocol A (10 nM OGA, 1 h)
[3] = Enzymatic protocol B (2 nM OGA, 6 h)

| SMILES | melting point [°C] | Emax [1, 3] [%] | IC50 [1, 3] [nM] | pEC50 (OGA) | Emax (OGA) [%] | also measured |
| --- | --- | --- | --- | --- | --- | --- |
| CC(=O)Nc1ncc(CN2CCOC(c3cc(C(F)F)n4ncnc4n3)C2)s1 (centres unmarked) [Product 39] | 209.69 | – | – | – | – | Emax [1, 2]: 88.4%; IC50 [1, 2]: 3470 nM |
| CC(=O)Nc1ncc(S(=O)(=O)N2CCNC(c3cc(C)nc4ncnn34)C2)s1 (centres unmarked) [Product 40] | 226.91 | – | – | – | – | Emax [1, 2]: 100%; IC50 [1, 2]: 16.6 nM |
| CC(=O)Nc1ncc(S(=O)(=O)N2CCC[C@@H](c3cc(C(F)F)n4ncnc4n3)C2)s1 [Product 22] | 263.43 | – | – | – | – | Emax [1, 2]: 99.1%; IC50 [1, 2]: 617 nM |
| CC(=O)Nc1ncc(CN2CCCC(C)(c3cc(C(F)F)n4ncnc4n3)C2)s1 (centres unmarked) [Product 62] | 217.24 | 16.2 | > 10000 | – | – | – |
| Cc1cc([C@H]2CN([C@@H](C)c3ccc4c(c3)OCO4)CCN2)n2ncnc2n1 [Product 57] | 161.31 | 93 | 617 | – | – | – |
| CC(=O)Nc1ncc(S(=O)(=O)N2CC[C@H](C)[C@@H](c3cc(C(F)F)nc4ncnn34)C2)s1 [Product 7] | 264.57 | – | – | – | – | Emax [1, 2]: 82.2%; IC50 [1, 2]: 2750 nM |
| CC(=O)Nc1ncc(CN2CCC(c3cc(C(F)(F)F)nc4ncnn34)C2)s1 (centres unmarked) [Product 20] | 214.29 | 93.7 | 603 | – | – | – |
| CC(=O)Nc1ncc(S(=O)(=O)N2CCOC(c3cc(C(F)F)n4ncnc4n3)C2)s1 (centres unmarked) [Product 38] | 229.94 | – | – | – | – | Emax [1, 2]: 101%; IC50 [1, 2]: 468 nM |
| CC(=O)Nc1ncc(CN2CCNC(c3cc(C)nc4ncnn34)C2)s1 (centres unmarked) [Product 42] | 228.95 | 93.6 | 437 | – | – | – |
| CC(=O)Nc1ncc(S(=O)(=O)N2CCNC(c3cc(C(F)F)n4ncnc4n3)C2)s1 (centres unmarked) [Product 43] | 226.22 | – | – | – | – | Emax [1, 2]: 93.1%; IC50 [1, 2]: 1860 nM |
| Cc1cc(C2CN(CC(=O)N3CCCC3)CCO2)n2ncnc2n1 (centres unmarked) [Product 59] | 127.35 | -1.34 | > 10000 | – | – | – |
| CC(=O)Nc1ncc(S(=O)(=O)N2CCCC(c3cc(C(F)F)n4ccnc4n3)C2)s1 (racemic) [Product 23] | 280.13 | – | – | – | – | Emax [1, 2]: 102%; IC50 [1, 2]: 295 nM |
| Cc1cc([C@H]2CN([C@H](C)c3ccc4c(c3)OCO4)CCN2)n2ncnc2n1 [Product 56] | 199.25 | 25.8 | > 10000 | – | – | – |
| CC(=O)Nc1ncc(CN2CCCC(c3cnc4cc[nH]c4c3)C2)s1 (racemic) [Product 26] | – | 123 | 40.7 | 7.62 | 99 | – |
| CC(=O)Nc1ncc(CN2CCC(Cc3cnc4ccn(C)c4c3)C2)s1 (centres unmarked) [Product 69] | – | 99.6 | 3.02 | 7.63 | 108 | – |
| CC(=O)Nc1ncc(CN2CCCC(c3cc4ccn(C)c4nc3C)C2)s1 (centres unmarked) [Product 101] | – | 102 | 6.61 | 8.03 | 114 | – |
| CC(=O)Nc1ncc(CN2CCCC(Cc3cc(C)nc4ccnn34)C2)s1 (centres unmarked) [Product 44] | – | 101 | 3.8 | 7.45 | 129 | – |
| CC(=O)Nc1ncc(CN2CCCC(Cc3cc(C)nc4ncnn34)C2)s1 (centres unmarked) [Product 46] | – | 99.8 | 2.34 | 7.83 | 114 | – |
| CC(=O)Nc1ncc(CN2CCC[C@H](c3cc4cc[nH]c4nc3C)C2)s1 (single isomer, unassigned) [Product 75] | – | – | – | – | – | Cellular hOGA; pEC50 (OGA): 7.90; Cellular Emax (%) (OGA): 119.60%; Enzymatic Emax (%) [1, 3]: 100.81%; Enzymatic hOGA; pIC50 [1, 3]: 8.57 |
| CC(=O)Nc1ncc(CN2CCCC(c3ccc4c(ccn4C)n3)C2)s1 (centres unmarked) [Product 100] | – | 98.5 | 309 | 6.71 | 85.7 | – |
| CC(=O)Nc1ncc(CN2CCCC(Cc3cnc4cc[nH]c4c3)C2)s1 (centres unmarked) [Product 97] | – | 102 | 1.74 | 8.11 | 109 | – |
| CC(=O)Nc1ncc(CN2CCC[C@@H](c3cnc4ccn(C)c4c3)C2)s1 (single isomer, unassigned) [Product 79] | – | – | – | – | – | Cellular hOGA; pEC50 (OGA): 7.87; Cellular Emax (%) (OGA): 101.35%; Enzymatic Emax (%) [1, 3]: 102.15%; Enzymatic hOGA; pIC50 [1, 3]: 8.14 |
| CC(c1ccc2c(c1)OCO2)N1CCOC(c2ccnc3ncnn23)C1 (centres unmarked) [Product 55] | – | 51.8 | 9550 | < 5.00 | 1.01 | – |
| CC(=O)Nc1ncc(CN2CCCC(c3nc(C)cc4ccn(C)c34)C2)s1 (centres unmarked) [Product 88] | – | 101 | 83.2 | 6.39 | 57.4 | – |
| CC(=O)Nc1ncc(CN2CCCC(Cc3cccc4nccn34)C2)s1 (centres unmarked) [Product 66] | – | 101 | 29.5 | 7.74 | 97.3 | – |
| CC(=O)Nc1ncc(CN2CCC[C@H](c3ccnc4ccn(C)c34)C2)s1 (single isomer, unassigned) [Product 71] | – | 100 | 12.6 | 7.06 | 79.2 | – |
| Cc1cc(C2CCCN(C(C)c3ccc4c(c3)OCO4)C2)n2ccnc2n1 (centres unmarked) [Product 52] | – | 101 | 18.6 | 5.58 | 131 | – |
| CC(=O)Nc1ncc(CN2CCCC(c3nc(C)cc4cc[nH]c34)C2)s1 (centres unmarked) [Product 91] | – | 103 | 95.5 | 7.35 | 84.3 | – |
| CC(=O)Nc1ncc(CN2CC[C@H](Cc3cccc4nccn34)C2)s1 [Product 107] | – | 101 | 8.13 | 7.26 | 82 | – |
| CC(=O)Nc1ncc(CN2CCC(Cc3c(F)c(C)nc4ncnn34)C2)s1 (centres unmarked) [Product 49] | – | 101 | 1.74 | 7.59 | 105 | – |
